Consider 11 compounds from PubChem BioAssay (NCI).

“And” between values parts separate entries of the source, which are not always exact repeats. Equal entries are not always repeated.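 These data come from cells grown in 96-well plates and exposed to compound for 48 hours at five concentrations. GI50 marks 50% less growth. The concentration for full growth arrest is given as TGI.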 Where only a bound is given, the exact number is not on record here.

Test systems include A549 NSCLC; HCT-116 colon; KM12 colon; M14 melanoma; MALME-3M melanoma; SR leukemia; T-47D breast; TK-10 renal; UACC-257 melanoma; NCI-H226 lung.
Holding throughout (test): inhibition of tumour cell growth, NCI panel, 48 h

For `Cc1cc(Cl)nc(N(CCNc2ccnc3cc(Cl)ccc23)Cc2ccco2)n1`, the GI50 in the test with A549 NSCLC was 3.1 µM; in the test on HCT-116 colon it was 1.58 µM; with KM12 colon, 2.01 µM; in the test on M14 melanoma, 1.88 µM; with MALME-3M melanoma, 1.96 µM; with SR leukemia it was 1.81 µM. For the same compound, the GI50 in the test with T-47D breast was 1.66 µM; in the test with TK-10 renal it was 2.62 µM; in the test on UACC-257 melanoma, 1.97 µM. The TGI came to 13.1 µM in the test with A549 NSCLC; 3.2 µM in the test on HCT-116 colon; 4.67 µM in the test on KM12 colon; 3.63 µM in the test on M14 melanoma; 3.57 µM in the test on MALME-3M melanoma; 4.39 µM in the test on SR leukemia. The TGI was found to be 3.61 µM with T-47D breast, 8.39 µM with TK-10 renal and 4.16 µM in the test on UACC-257 melanoma.
Regarding `CC(=O)Oc1ccc(C2=Cc3ccc(OC(C)=O)cc3OC2C)cc1` (configuration not stated), the GI50 in the test on A549 NSCLC was 6.29 µM; in the test with HCT-116 colon, 4.87 µM; with KM12 colon, 5.97 µM; with M14 melanoma, 4.11 µM; with NCI-H226 lung, 4.96 µM; in the test with SR leukemia it was 1.7 µM. In addition, the results for the GI50 in the test with T-47D breast, with TK-10 renal and in the test on UACC-257 melanoma were 12.7 µM, 20 µM and 15 µM, respectively. In addition, the TGI with A549 NSCLC was above 100 µM; with HCT-116 colon it was 17.9 µM; with KM12 colon it was 23.2 µM; in the test with M14 melanoma, 38.1 µM; with NCI-H226 lung, 53.8 µM; in the test on SR leukemia, 9.95 µM. The TGI in the test with T-47D breast was 60.5 µM; with TK-10 renal it was above 100 µM; with UACC-257 melanoma it was 64.1 µM.
`CCOC(=O)C1(C)CCC(C(C(=O)O)C(=O)O)CC1=O` (configuration not stated): the TGI in the test on A549 NSCLC, with HCT-116 colon, in the test on KM12 colon, with M14 melanoma, with MALME-3M melanoma and in the test with NCI-H226 lung was above 100 µM throughout. Further, the TGI in the test on SR leukemia, in the test with TK-10 renal and in the test on UACC-257 melanoma was above 100 µM each time.
On to `COc1ccc2ccccc2c1C1=NC(C)(C)CO1`, for which the TGI in the test on A549 NSCLC, with HCT-116 colon, in the test with KM12 colon, with M14 melanoma, with MALME-3M melanoma and in the test on NCI-H226 lung was above 100 µM each time. Further, the TGI in the test with SR leukemia, in the test with TK-10 renal and in the test on UACC-257 melanoma was above 100 µM in each case.
For the compound `CC[C@H](C)[C@H](NC(=O)[C@H]1CCCCN1C)C(=O)N(C)[C@H](C[C@@H](OC(C)=O)c1nc(C(=O)NC23CC(C(=O)OC)(C2)C3)cs1)C(C)C`, the GI50 is 0.00378 µM and 0.00325 µM in the test with A549 NSCLC; 0.000878 µM and 0.00325 µM in the test on HCT-116 colon; 0.00319 µM and 0.00325 µM in the test with KM12 colon; 0.00554 µM and 0.00325 µM in the test on M14 melanoma; 0.00756 µM and 0.0305 µM in the test on MALME-3M melanoma; 0.133 µM with NCI-H226 lung. Also, the GI50 was 0.000499 µM in the test with T-47D breast and 0.0458 µM in the test on TK-10 renal. For the same compound, the TGI in the test with A549 NSCLC is above 32.5 µM; with HCT-116 colon, above 32.5 µM; with KM12 colon, 6.6 µM; with M14 melanoma, 0.00618 µM; in the test on MALME-3M melanoma it was above 32.5 µM; in the test with NCI-H226 lung, 9.18 µM. The TGI in the test on SR leukemia is above 32.5 µM.
`COc1ccc2c(C(=O)O)cc3ccccc3c2c1OC`: the TGI in the test on A549 NSCLC is above 100 µM; in the test on HCT-116 colon, 32.6 µM; in the test with KM12 colon, 33.9 µM; in the test on M14 melanoma it was 30.7 µM; with MALME-3M melanoma, 41.9 µM; in the test on NCI-H226 lung, 71.9 µM. The TGI in the test on SR leukemia was above 100 µM; in the test on TK-10 renal, 33.2 µM; with UACC-257 melanoma, 35.9 µM.
For `CC(=O)OCC(=O)[C@@]1(O)CC[C@H]2[C@@H]3C[C@H](C)C4=CC(=O)C=C[C@]4(C)[C@@]3(F)[C@@H](O)C[C@@]21C`, the TGI in the test on A549 NSCLC, in the test with HCT-116 colon, with KM12 colon, with M14 melanoma, in the test with MALME-3M melanoma and in the test on NCI-H226 lung was above 100 µM throughout. Further, the TGI with SR leukemia, with TK-10 renal and in the test with UACC-257 melanoma was above 100 µM each time.
Turning to `O=C(NCCc1ccccc1)C1C(=O)C(=O)N(CCc2ccccc2)C1=O` (configuration not stated), the TGI with A549 NSCLC, in the test with HCT-116 colon, with KM12 colon, in the test with M14 melanoma, in the test with MALME-3M melanoma and in the test with NCI-H226 lung was above 100 µM each time. The TGI in the test on SR leukemia, in the test on TK-10 renal and with UACC-257 melanoma was above 100 µM in each case.
As for `COc1cc(-c2nccc3[nH]c(-c4ccc5cc[nH]c5c4)nc23)cc(OC)c1OC`, the GI50 was 0.0113 µM in the test on A549 NSCLC; below 0.01 µM in the test on HCT-116 colon; below 0.01 µM in the test on KM12 colon; 1.29 µM with MALME-3M melanoma; below 0.01 µM with SR leukemia; 1.26 µM in the test with T-47D breast. Further, the GI50 with TK-10 renal was 1.13 µM. The TGI in the test with A549 NSCLC amounted to 1.77 µM; in the test with HCT-116 colon, 1.13 µM; in the test with KM12 colon, 1.5 µM; with MALME-3M melanoma, 3.2 µM; in the test on SR leukemia it was 11.9 µM; in the test with T-47D breast it was 4.38 µM. In addition, the TGI in the test with TK-10 renal turned out to be 7.88 µM.
`O=C1C2C3C=CC(C2C(=O)N1CO)C1C2C(=O)N(CO)C(=O)C2C31` (configuration not stated): the TGI was above 88.4 µM in the test with A549 NSCLC; above 59.8 µM in the test with HCT-116 colon; above 100 µM in the test with KM12 colon; above 100 µM with M14 melanoma; above 100 µM in the test with MALME-3M melanoma; above 100 µM in the test on NCI-H226 lung. For the same compound, the TGI was 45 µM with SR leukemia, above 100 µM with TK-10 renal and above 100 µM in the test with UACC-257 melanoma.
As for `CC(C)[C@@H]1CC[C@]2(CO2)[C@@H]2C(=O)OCC(C(=O)O)=C[C@H]21`, the GI50 in the test with A549 NSCLC was 1.57 µM; in the test with HCT-116 colon, 0.325 µM; in the test on KM12 colon, 0.344 µM; in the test on M14 melanoma it was 0.273 µM; in the test with MALME-3M melanoma, 0.305 µM; with NCI-H226 lung, 0.667 µM. Besides, the GI50 with SR leukemia was 0.552 µM; in the test with T-47D breast, 0.381 µM; with TK-10 renal it was 0.686 µM. The TGI in the test on A549 NSCLC is above 100 µM; in the test on HCT-116 colon, above 100 µM; with KM12 colon it was 4.08 µM; with M14 melanoma, 0.898 µM; with MALME-3M melanoma, 5.31 µM; with NCI-H226 lung it was above 100 µM. Further, the results for the TGI with SR leukemia, with T-47D breast and with TK-10 renal were 4.24 µM, above 100 µM and above 93.5 µM, respectively.
